Literature values in US6955812B2, “Health food and preparation having an anti-obesity effect” (Mitsubishi Heavy Industries, Ltd., priority 2001, dated 2005).

Test system: HepG2 cells
Conditions: cultured HepG2 cells of a human liver model; from Japanese patent application No. 2000-202404

SMILES: NC(CO)CS(=O)(=O)O [D-cysteinolic acid]
- effect on neutral fat (triglyceride): greatly suppressing
